From patent US20230233569A1 (Revolution Medicines, Inc., priority 2020, published 2023)
Read-outs that look alike come from different tables or passages of the source.

How the values were obtained:
Test in all cases: Ras-Raf disruption / FRET / MOA assay (BRAF RBD)
Type in all cases: biochemical
KRAS G13C = KRAS G13C (Homo sapiens, UniProt P01116+P62937, G13C); conditions: with Cyclophilin A
Summary of the method: (§1)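 Compound-induced Ras–Cyclophilin A ternary complex disrupting BRAF RBD binding, read as IC50 from reduced TR-FRET ratio relative to DMSO. Final: Ras-GMPPNP 12.5 nM, BRAF RBD 50 nM, Cyclophilin A 25 μM, top compound 30 μM (3-fold, 10 points); 3 h at 25 °C, then 1.5 h with detection antibodies.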

NRAS Q61K = NRAS Q61K (Homo sapiens, UniProt P01111+P62937, Q61K)
Sequence of NRAS Q61K (P01111 whole entry Q61K): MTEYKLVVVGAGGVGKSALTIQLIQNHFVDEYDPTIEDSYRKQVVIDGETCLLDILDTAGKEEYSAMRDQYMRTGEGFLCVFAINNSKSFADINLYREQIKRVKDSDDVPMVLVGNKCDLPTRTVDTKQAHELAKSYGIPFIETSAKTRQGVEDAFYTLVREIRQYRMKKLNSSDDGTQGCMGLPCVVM
Sequence of NRAS Q61K (P62937 whole entry): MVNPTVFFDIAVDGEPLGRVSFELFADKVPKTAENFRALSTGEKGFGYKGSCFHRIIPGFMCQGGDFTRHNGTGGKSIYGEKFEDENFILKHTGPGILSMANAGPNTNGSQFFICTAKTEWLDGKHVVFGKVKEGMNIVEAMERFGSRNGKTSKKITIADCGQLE
Summary of the method: as §1

NRAS G12C = NRAS G12C (Homo sapiens, UniProt P01111+P62937, G12C)
Sequence of NRAS G12C (P01111 whole entry G12C): as the sequence (P01111 whole entry Q61K) above, with G12C, K61Q counted along it
Sequence of NRAS G12C (P62937 whole entry): as the sequence (P62937 whole entry) above
Summary of the method: as §1

KRAS WT = KRAS WT (Homo sapiens, UniProt P01116+P62937); conditions: with Cyclophilin A
Sequence of KRAS WT (P01116 1-169 isoform P01116-2 limits assumed): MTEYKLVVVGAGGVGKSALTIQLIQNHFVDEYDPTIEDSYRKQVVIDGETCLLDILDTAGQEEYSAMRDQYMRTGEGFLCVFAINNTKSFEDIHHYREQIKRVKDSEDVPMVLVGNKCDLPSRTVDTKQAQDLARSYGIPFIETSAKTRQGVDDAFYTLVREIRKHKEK
Sequence of KRAS WT (P62937 whole entry): as the sequence (P62937 whole entry) above
Summary of the method: as §1

NRAS WT = NRAS WT (Homo sapiens, UniProt P01111+P62937)
Sequence of NRAS WT (P01111 whole entry): as the sequence (P01111 whole entry Q61K) above, with K61Q counted along it
Sequence of NRAS WT (P62937 whole entry): as the sequence (P62937 whole entry) above
Summary of the method: as §1

KRAS G12D = KRAS G12D (Homo sapiens, UniProt P01116+P62937, G12D); conditions: with Cyclophilin A
Sequence of KRAS G12D (P01116 1-169 isoform P01116-2 G12D limits assumed): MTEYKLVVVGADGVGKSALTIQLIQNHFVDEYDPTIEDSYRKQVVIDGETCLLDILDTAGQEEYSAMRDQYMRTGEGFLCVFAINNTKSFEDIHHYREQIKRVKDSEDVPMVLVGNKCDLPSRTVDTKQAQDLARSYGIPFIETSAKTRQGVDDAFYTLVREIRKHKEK
Sequence of KRAS G12D (P62937 whole entry): as the sequence (P62937 whole entry) above
Summary of the method: as §1

KRAS G12S = KRAS G12S (Homo sapiens, UniProt P01116+P62937, G12S); conditions: with Cyclophilin A
Sequence of KRAS G12S (P01116 1-169 isoform P01116-2 G12S limits assumed): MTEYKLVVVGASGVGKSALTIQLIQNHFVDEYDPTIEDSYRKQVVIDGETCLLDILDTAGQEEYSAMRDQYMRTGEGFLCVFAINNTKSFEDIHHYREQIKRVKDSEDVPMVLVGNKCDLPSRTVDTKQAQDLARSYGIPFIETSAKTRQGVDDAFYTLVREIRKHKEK
Sequence of KRAS G12S (P62937 whole entry): as the sequence (P62937 whole entry) above
Summary of the method: as §1

KRAS G12V = KRAS G12V (Homo sapiens, UniProt P01116+P62937, G12V); conditions: with Cyclophilin A
Sequence of KRAS G12V (P01116 1-169 isoform P01116-2 G12V limits assumed): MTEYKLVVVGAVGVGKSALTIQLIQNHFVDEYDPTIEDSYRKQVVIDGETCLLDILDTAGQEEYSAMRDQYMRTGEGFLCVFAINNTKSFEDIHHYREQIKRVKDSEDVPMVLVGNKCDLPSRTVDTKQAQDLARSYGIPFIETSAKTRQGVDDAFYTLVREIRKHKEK
Sequence of KRAS G12V (P62937 whole entry): as the sequence (P62937 whole entry) above
Summary of the method: as §1

KRAS G13D = KRAS G13D (Homo sapiens, UniProt P01116+P62937, G13D); conditions: with Cyclophilin A
Sequence of KRAS G13D (P01116 1-169 isoform P01116-2 G13D limits assumed): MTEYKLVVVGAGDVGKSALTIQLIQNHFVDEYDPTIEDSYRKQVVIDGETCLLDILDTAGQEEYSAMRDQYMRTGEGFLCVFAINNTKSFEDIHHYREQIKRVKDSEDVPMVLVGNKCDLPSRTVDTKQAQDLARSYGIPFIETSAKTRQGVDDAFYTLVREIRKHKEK
Sequence of KRAS G13D (P62937 whole entry): as the sequence (P62937 whole entry) above
Summary of the method: as §1

NRAS Q61R = NRAS Q61R (Homo sapiens, UniProt P01111+P62937, Q61R)
Sequence of NRAS Q61R (P01111 whole entry Q61R): as the sequence (P01111 whole entry Q61K) above, with K61R counted along it
Sequence of NRAS Q61R (P62937 whole entry): as the sequence (P62937 whole entry) above
Summary of the method: as §1

KRAS Q61H = KRAS Q61H (Homo sapiens, UniProt P01116+P62937, Q61H)
Sequence of KRAS Q61H (P01116 1-169 isoform P01116-2 Q61H limits assumed): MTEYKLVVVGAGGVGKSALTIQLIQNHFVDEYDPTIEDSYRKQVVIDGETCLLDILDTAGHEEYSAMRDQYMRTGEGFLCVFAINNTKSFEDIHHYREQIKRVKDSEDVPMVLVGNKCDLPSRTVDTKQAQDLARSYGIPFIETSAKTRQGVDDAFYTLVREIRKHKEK
Sequence of KRAS Q61H (P62937 whole entry): as the sequence (P62937 whole entry) above
Summary of the method: as §1

KRAS G12C = KRAS G12C (Homo sapiens, UniProt P01116+P62937, G12C); conditions: with Cyclophilin A
Sequence of KRAS G12C (P01116 1-169 isoform P01116-2 G12C limits assumed): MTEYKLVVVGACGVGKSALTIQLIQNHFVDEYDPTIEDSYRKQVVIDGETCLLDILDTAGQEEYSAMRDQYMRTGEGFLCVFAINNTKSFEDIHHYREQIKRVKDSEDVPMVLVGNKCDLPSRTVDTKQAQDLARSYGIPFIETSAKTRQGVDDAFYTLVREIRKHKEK
Sequence of KRAS G12C (P62937 whole entry): as the sequence (P62937 whole entry) above
Summary of the method: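 TR-FRET read-out after 1.5 h with anti-His Eu-W1024 (10 nM) and anti-GST APC (50 nM), following 3 h at 25 °C of compound (top 30 μM, 3-fold, 10 points) with 25 μM Cyclophilin A, 12.5 nM GMPPNP-loaded K-Ras G12C and 50 nM BRAF RBD; IC50 reported.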

[1] = KRAS G13C FRET data IC50, Ras-Raf disruption
[2] = NRAS G12C FRET data IC50, NRAS G12C
[3] = KRAS WT FRET data IC50, Ras-Raf disruption
[4] = KRAS G12D FRET data IC50, Ras-Raf disruption
[5] = KRAS G12S FRET data IC50, Ras-Raf disruption
[6] = KRAS G12V FRET data IC50, Ras-Raf disruption
[7] = KRAS G13D FRET data IC50, Ras-Raf disruption
[8] = KRAS G12C FRET data IC50, Ras-Raf disruption

Sequence of KRAS G13C (P01116 1-169 isoform P01116-2 G13C limits assumed): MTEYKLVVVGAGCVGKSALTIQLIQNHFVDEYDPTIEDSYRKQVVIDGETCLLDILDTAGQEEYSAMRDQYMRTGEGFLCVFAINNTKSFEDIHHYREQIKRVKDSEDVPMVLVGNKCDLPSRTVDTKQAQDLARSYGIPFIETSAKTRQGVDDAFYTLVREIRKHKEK
Sequence of KRAS G13C (P62937 whole entry): as the sequence (P62937 whole entry) above

Compound	IC50 (KRAS G13C; [1]) [nM]	IC50 (NRAS Q61K) [nM]	IC50 (NRAS G12C; [2]) [nM]	IC50 (KRAS WT; [3]) [nM]	IC50 (NRAS WT) [nM]	IC50 (KRAS G12D; [4]) [nM]	IC50 (KRAS G12S; [5]) [nM]	IC50 (KRAS G12V; [6]) [nM]	IC50 (KRAS G13D; [7]) [nM]	IC50 (NRAS Q61R) [nM]	IC50 (KRAS Q61H) [nM]	IC50 (KRAS G12C; [8]) [nM]	further results
CCN1C[C@@H]1C(=O)N(C)CC(=O)N(C)[C@H](C(=O)N[C@H]1Cc2cc(O)cc(c2)-c2ccc3c(c2)c(c(-c2cccnc2[C@H](C)OC)n3CC)CC(C)(C)COC(=O)[C@@H]2CCCN(N2)C1=O)C1CCCC1 (stereo partly drawn) [Example 309]	10 to 100	100 to 1000	< 10	10 to 100	10 to 100	10 to 100	10 to 100	10 to 100	10 to 100	100 to 1000	10 to 100	< 10	
CCn1c(-c2cccnc2[C@H](C)OC)c2c3cc(ccc31)-c1cc(O)cc(c1)C[C@H](NC(=O)[C@@H](COC1CN(C(=O)[C@H]3CN3)C1)C(C)C)C(=O)N1CCC[C@H](N1)C(=O)OCC(C)(C)C2 [Example 312]													IC50 (KRAS G13C; Ras-Raf disruption, read-out: KRAS G13C FRET data IC50): 100 to 1000 nM; IC50 (NRAS Q61K; NRAS Q61K, read-out: NRAS Q61K FRET data IC50): 1000 to 10000 nM; IC50 (NRAS G12C; NRAS G12C, read-out: NRAS G12C FRET data IC50): < 10 nM; IC50 (KRAS WT; Ras-Raf disruption, read-out: KRAS WT FRET data IC50): 100 to 1000 nM; IC50 (NRAS WT; NRAS WT, read-out: NRAS WT FRET data IC50): 100 to 1000 nM; IC50 (KRAS G12D; Ras-Raf disruption, read-out: KRAS G12D FRET data IC50): 1000 to 10000 nM; IC50 (KRAS G12S; Ras-Raf disruption, read-out: KRAS G12S FRET data IC50): 1000 to 10000 nM; IC50 (KRAS G12V; Ras-Raf disruption, read-out: KRAS G12V FRET data IC50): 1000 to 10000 nM; IC50 (KRAS G13D; Ras-Raf disruption, read-out: KRAS G13D FRET data IC50): 1000 to 10000 nM; IC50 (NRAS Q61R; NRAS Q61R, read-out: NRAS Q61R FRET data IC50): 1000 to 10000 nM; IC50 (KRAS Q61H; KRAS Q61H, read-out: KRAS Q61H FRET data IC50): 100 to 1000 nM; IC50 (KRAS G12C; Ras-Raf disruption, read-out: KRAS G12C FRET data IC50): < 10 nM
CCn1c(-c2cccnc2[C@H](C)OC)c2c3cc(ccc31)-c1cc(O)cc(c1)C[C@H](NC(=O)[C@H](C1CCCC1)N(C)C(=O)CN(C)C(=O)[C@@H]1N[C@@H]1C1(F)CC1)C(=O)N1CCC[C@H](N1)C(=O)OCC(C)(C)C2 [Example 314]	10 to 100	100 to 1000	10 to 100	10 to 100	10 to 100	100 to 1000	10 to 100	10 to 100	10 to 100	100 to 1000	10 to 100	10 to 100	
CCn1c(-c2cccnc2[C@H](C)OC)c2c3cc(ccc31)-c1cc(O)cc(c1)C[C@H](NC(=O)[C@H](C1CCCC1)N(C)C(=O)CN(C)C(=O)[C@H]1N[C@H]1C1(F)CC1)C(=O)N1CCC[C@H](N1)C(=O)OCC(C)(C)C2 [Example 315]	10 to 100	10 to 100	10 to 100	10 to 100	< 10	10 to 100	10 to 100	10 to 100	10 to 100	100 to 1000	10 to 100	10 to 100	
CCn1c(-c2cccnc2[C@H](C)OC)c2c3cc(ccc31)-c1cc(O)cc(c1)C[C@H](NC(=O)[C@H](C1CCCC1)N(C)C(=O)CN(C)C(=O)[C@H]1N[C@H]1C1(C#N)CC1)C(=O)N1CCC[C@H](N1)C(=O)OCC(C)(C)C2 [Example 316]	10 to 100	100 to 1000	10 to 100	10 to 100	10 to 100	10 to 100	10 to 100	10 to 100	10 to 100	100 to 1000	10 to 100	10 to 100	
CCn1c(-c2cccnc2[C@H](C)OC)c2c3cc(ccc31)-c1cc(O)cc(c1)C[C@H](NC(=O)[C@H](C1CCCC1)N(C)C(=O)CN(C)C(=O)[C@H]1[C@@H](C3CC3)N1CCCOC)C(=O)N1CCC[C@H](N1)C(=O)OCC(C)(C)C2 (stereo partly drawn) [Example 317]	10 to 100	100 to 1000	10 to 100	10 to 100	10 to 100	100 to 1000	10 to 100	10 to 100	100 to 1000	100 to 1000	10 to 100	10 to 100	
CCn1c(-c2cccnc2[C@H](C)OC)c2c3cc(ccc31)-c1cc(cc(C(F)F)c1)C[C@H](NC(=O)[C@H](C1CCCC1)N(C)C(=O)CN(C)C(=O)[C@@H]1N[C@@H]1C1CC1)C(=O)N1CCC[C@H](N1)C(=O)OCC(C)(C)C2 [Example 320]	100 to 1000	1000 to 10000	100 to 1000	1000 to 10000	1000 to 10000	1000 to 10000	1000 to 10000	1000 to 10000	1000 to 10000	1000 to 10000	100 to 1000	100 to 1000	
CCn1c(-c2cc(N3CCN(C)CC3)cnc2[C@H](C)OC)c2c3cc(ccc31)-c1cc(O)cc(c1)C[C@H](NC(=O)[C@H](C1CCCC1)N(C)C(=O)CN(C)C(=O)[C@@H]1N[C@@H]1C1CC1)C(=O)N1CCC[C@H](N1)C(=O)OCC(C)(C)C2 [Example 325]	< 10	10 to 100	< 10	< 10	< 10	< 10	< 10	< 10	10 to 100	10 to 100	< 10	< 10	
CCn1c(-c2cccnc2[C@H](C)OC)c2c3cc(ccc31)-c1cc(O)cc(c1)C[C@H](NC(=O)[C@H](C1CCCC1)N(C)C(=O)[C@@H](C)N(C)C(=O)[C@@H]1N[C@@H]1C1CC1)C(=O)N1CCC[C@H](N1)C(=O)OCC(C)(C)C2 [Example 327]	1000 to 10000	> 10000	1000 to 10000	1000 to 10000	> 10000	1000 to 10000	> 10000	> 10000	> 10000	> 10000	1000 to 10000	1000 to 10000	
CCn1c(-c2cccnc2[C@H](C)OC)c2c3cc(ccc31)-c1cc(O)cc(c1)C[C@H](NC(=O)[C@H](C1CCCC1)N(C)C(=O)[C@H](C)N(C)C(=O)[C@@H]1N[C@@H]1C1CC1)C(=O)N1CCC[C@H](N1)C(=O)OCC(C)(C)C2 [Example 328]	10 to 100	100 to 1000	10 to 100	10 to 100	10 to 100	100 to 1000	10 to 100	10 to 100	100 to 1000	100 to 1000	10 to 100	10 to 100	
